In EP0775133B1, “NAPHTHALENE AMIDES HAVING LEUKOTRIENE-ANTAGONISTIC ACTION” (LABORATORIOS MENARINI S.A., priority 1994, dated 1996):
Counter-ions that a name gives are not always drawn.

Assays:
[1] = target: T1, LTD4 receptors (Cavia porcellus, UniProt Q2NNR5); assay: [3H]-LTD4 receptor binding inhibition test in guinea-pig lung membranes; settings: 0.5 nM [3H]-LTD4, 30 minutes at 25°C, Cheng-Prusoff
T1 construct: Guinea pig lung membranes, containing the LTD4 receptors; from tissue; host or cells: guinea-pig lung membranes
T1 sequence (Q2NNR5 1-340): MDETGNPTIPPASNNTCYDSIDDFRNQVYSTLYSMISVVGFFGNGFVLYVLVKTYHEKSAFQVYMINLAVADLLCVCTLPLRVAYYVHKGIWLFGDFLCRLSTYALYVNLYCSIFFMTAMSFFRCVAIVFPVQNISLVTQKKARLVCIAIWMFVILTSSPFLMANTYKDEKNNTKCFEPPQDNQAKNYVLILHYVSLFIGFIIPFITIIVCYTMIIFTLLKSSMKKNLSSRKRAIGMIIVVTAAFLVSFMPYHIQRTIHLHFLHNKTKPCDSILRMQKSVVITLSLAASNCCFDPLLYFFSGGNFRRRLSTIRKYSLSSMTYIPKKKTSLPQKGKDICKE
Protocol: [^3H]-LTD4 receptor binding inhibition test in quinea-pig lung membranes
These purified membranes (150 µg/ml) are added to an incubation mixture containing 10 mM of PIPES buffer (piperazin-N,N'-bis(2-ethanesulfonic acid) (pH 7.4), 10 mM of CaCl2, 10 mM of 5 MgCl2, 2 mM of cysteine, 2 mM of glycine, 0.5 nM of [^3H]-LTD4 (4700-6400 GBq/mmol) and different concentrations of the product under test in a final volume of 310 µl. The reaction mixture is incubated for 30 minutes at 25°C.
The radioligand bound to the membranes is separated from the free one by dilution with 4 ml washing buffer (10 mM Tris-HCl (pH 7.4) and 100 mM NaCl) at 0°C and filtration with Whatman GF/B filters, by means of a Brandel Cell Harvester. The filters are washed 4 times with a total volume of 16 ml of washing buffer at 0°C. The radioactivity present in the filters is determined by liquid scintillation.
The specific binding is defined as the difference between the total binding of [^3H]-LTD4 and the nonspecific binding determined in the presence of 1 µM LTD4.

[2] = test system: mienteric plexus of guinea-pig isolated ileum; assay: Inhibition of LTD4-induced contractions in the mienteric plexus of guinea-pig isolated ileum; settings: LTD4 3 nM, compound incubated 2.5 minutes
Protocol: Inhibition test of the contractions induced by LTD4 in the mienteric plexus of quinea-pig isolated ileum.
The antagonistic activity of the compounds of the present invention in the isolated organ was evaluated as its ability to inhibit the contraction caused by LTD4 in the mienteric plexus of the ileum of Dunkin Hartley male albino guinea-pig, weighing 300-350 g (Cristol J.P. and Sirois P. Res. Commun. Chem. Pathol., 59, 423 (1988)).
The mienteric plexus is extracted from a 2-3 cm segment of the terminal portion of the guinea-pig ileum, previously sacrificed by cervical dislocation. The plexus is put, at a tension of 0.5 g, in a 5 ml organ bath, containing a solution of Tyrode (137 mM NaCl, 2.7 mM KCl, 1.4 mM CaCl2, 0.4 mM NaH2PO4, 11.9 mM NaHCO3, 0.8 mM MgSO4, 5.5 mM glucose), saturated with carbogen gas (95% 02-5% CO2) at 37°C. The solution also contains indomethacin (3.3 µM) and atropine (0.4 µM) to remove the action of the intrinsic prostaglandins and the cholinergic responses.
After a 45 minute stabilization period a maximum isotonic response is obtained (100% contractile response) adding to the bath chamber the LTD4 agonist (3 nM). This process is repeated until the same contraction response is obtained twice. The […] measures are made in an isotonic transducer.
After stabilization is restored, the product under test is incubated at different concentrations (dissolved in 0.1% final concentration DMSO) for 2.5 minutes, and after that the contraction with LTD4 is induced again.
The antagonistic activity is expressed as IC50, the concentration of compound which reduces by 50% the maximum contraction.

Row | Compound | Ki [1] | IC50 [2]
1 | CC(C(=O)Nc1ccc(CCCC(=O)O)cc1)c1ccc2cc(OCc3ccc4ccccc4n3)ccc2c1 (centres unmarked) [Example 10, 4-[4-[2-[6-(2-quinolinylmethoxy)-2-naphthyl]propanamido]phenyl]butanoic acid] | 38.5 ± 6.3 nM | > 100 nM
2 | CC(C(=O)Nc1ccc(Cc2nn[nH]n2)cc1)c1ccc2cc(OCc3ccc4ccccc4n3)ccc2c1 (centres unmarked) [Example 6, N-[4-(1H-5-tetrazolyl)methylphenyl]-2-[6-(2-quinolinylmethoxy)-2-naphthyl]propanamide (sodium salt)] | 32.7 ± 3 nM | > 100 nM
3 | CC(C(=O)NCc1cccc(C(=O)O)c1)c1ccc2cc(OCc3ccc4ccccc4n3)ccc2c1 (centres unmarked) [Example 14, 3-[2-[6-(2-quinolinylmethoxy)-2-naphthyl]propanamidomethyl]benzoic acid] | 68 ± 5 nM | 75 nM
4 | CC(C(=O)NCc1ccccc1-c1nnn[nH]1)c1ccc2cc(OCc3ccc4ccccc4n3)ccc2c1 (centres unmarked) [Example 3, N-[2-(1H-5-tetrazolyl)phenylmethyl]-2-[6-(2-quinolinylmethoxy)-2-naphthyl]propanamide] | 12 ± 3 nM | 18 nM
5 | CC(C(=O)Nc1ccc(Cc2nnn[nH]2)cc1)c1ccc2cc(OCc3ccc4ccccc4n3)ccc2c1 (centres unmarked) [Example 5, N-[4-(1H-5-tetrazolyl)methylphenyl]-2-[6-(2-quinolinylmethoxy)-2-naphthyl]propanamide] | 34 ± 5 nM | > 100 nM
6 | CC(C(=O)NCc1cccc(-c2nnn[nH]2)c1)c1ccc2cc(OCc3ccc4ccccc4n3)ccc2c1 (centres unmarked) [Example 2, N-[3-(1H-5-tetrazolyl)phenylmethyl]-2[6-(2-quinolinylmethoxy)-2-naphthyl]propanamide] | 29.5 ± 3 nM | 66 nM
7 | O=C(O)CCCc1ccc(NC(=O)c2ccc3ccc(OCc4ccc5ccccc5n4)cc3c2)cc1 [Example 26, 4-[4-[[7-(2-quinolinylmethoxy)-2-naphthyl]carboxamido]phenyl]butanoic acid] |  | 38 nM
8 | O=C(O)c1ccc(CCNC(=O)c2ccc3ccc(OCc4ccc5ccccc5n4)cc3c2)cc1 [Example 29, 4-[2-[[7-(2-quinolinylmethoxy)-2-naphthyl]carboxamido]ethyl]benzoic acid] | 1 ± 0.1 nM | 8 nM
9 | O=C(O)CCCc1ccc(NC(=O)c2ccc3cc(OCc4ccc5ccccc5n4)ccc3c2)cc1 [Example 23, 4-[4-[[6-(2-quinolinylmethoxy)-2-naphthyl]carboxamido]phenyl]butanoic acid] | 30 ± 1.2 nM | > 100 nM
10 | CC(C(=O)NCc1ccc(-c2nnn[nH]2)cc1)c1ccc2cc(OCc3ccc4ccccc4n3)ccc2c1 (centres unmarked) [Example 1, N-[4-(1H-5-tetrazolyl)phenylmethyl]-2-[6-(2-quinolinylmethoxy)-2-naphthyl]propanamide] |  | 13 nM
11 | CC(C(=O)Nc1cccc(CC(=O)O)c1)c1ccc2cc(OCc3ccc4ccccc4n3)ccc2c1 (centres unmarked) [Example 18, 3-[2-[6-(2-Quinolinylmethoxy)-2-naphthyl]propanamido]phenylacetic acid] | 134 ± 18 nM | 

Second part, the compound after the results:

Row | Ki [1] | IC50 [2] | Compound
12 | 190 ± 21 nM |  | CC(C(=O)Nc1ccc(CCCC(=O)O)cc1)c1ccc2cc(OCc3ccc4ccc(Cl)cc4n3)ccc2c1 (centres unmarked) [Example 20, 4-[4-[2-[6-[(7-chloro-2-quinolinyl)-methoxy]-2-naphthyl]propanamido]phenyl]butanoic acid]
13 | 44 ± 15 nM |  | O=C(O)CCCc1ccc(C(=O)NCc2ccc3cc(OCc4ccc5ccccc5n4)ccc3c2)cc1 [Example 32, 4-[4-[[6-(2-quinolinylmethoxy)-2-naphthyl]methylaminocarbonyl]phenyl]butanoic acid]
14 |  | 24 nM | O=C(NCCc1ccc(-c2nnn[nH]2)cc1)c1ccc2ccc(OCc3ccc4ccccc4n3)cc2c1 [Example 30, N-[4-(1H-5-tetrazolyl)phenylethyl]-7-(2-quinolinylmethoxy)-2-naphthalenecarboxamide]
15 | 5.5 ± 0.5 nM | 6 nM | O=C(Cc1ccc2cc(OCc3ccc4ccccc4n3)ccc2c1)NCc1ccc(-c2nnn[nH]2)cc1 [Example 21, N-[4-(1H-5-tetrazolyl)phenylmethyl]-6-(2-quinolinylmethoxy)-2-naphthaleneacetamide]
16 | 7.8 ± 2 nM | 28 nM | O=C(NCc1ccc(-c2nnn[nH]2)cc1)c1ccc2ccc(OCc3ccc4ccccc4n3)cc2c1 [Example 27, N-[4-(1H-5-tetrazolyl)phenylmethyl]-7-(2-quinolinylmethoxy)-2-naphthalenecarboxamide]
17 | 13.1 ± 2 nM | 87 nM | O=C(NCCCc1ccc(-c2nnn[nH]2)cc1)c1ccc2ccc(OCc3ccc4ccccc4n3)cc2c1 [Example 33, N-[4-(1H-5-tetrazolyl)phenylpropyl]-7-(2-quinolinylmethoxy)-2-naphthalenecarboxamide]
18 | 28 ± 3 nM |  | O=C(NCc1cccc(-c2nnn[nH]2)c1)c1ccc2cc(OCc3ccc4ccccc4n3)ccc2c1 [Example 24, N-[3-(1H-5-tetrazolyl)phenylmethyl]-6-(2-quinolinylmethoxy)-2-naphthalenecarboxamide]
